Experimental data taken from patent publication US4267184A, “Antiinflammatory 4,5-diaryl-2-(substituted-thio)pyrroles and their corresponding sulfoxides and sulfones” (E. I. Du Pont de Nemours and Company, priority 1980, dated 1981).

Tests used:
[1] = tested on: phenylquinone writhing in mice; experiment: Phenylquinone Writhing Test (analgesic activity); type: in vivo, female white mice; conditions: Mus musculus, oral, phenylquinone i.p., effective analgesic dose for 50% of the mice
Source text: A procedure for detecting and comparing the analgesic activity of compounds in this series and standard drugs for which there is a good correlation with human efficacy is the phenylquinone writhing test.
(§1) The test procedures employed for determining antiinflammatory and analgesic activity are described below with test data included in Tables VII and VIII.
The phenylquinone writhing test, modified from Siegmund, et al., Proc. Soc. Exp. Biol. Med. 95, 729 (1957), was employed. A test compound suspended in 1% methylcellulose was given orally to fasted (17-21 hours) female white mice, 5-20 animals per double blind test. Aqueous (0.01% phenyl-p-benzoquinone) phenylquinone was injected intraperitoneally at 24 minutes later using 0.20 ml per mouse. […] The effective analgesic dose for 50% of the mice (ED50) was calculated by the moving average method of Thompson, W. R., Bact. Rev. 11, 115-145 (1947).

[2] = tested on: Adjuvant-Induced Arthritis in Rats; experiment: Established Adjuvant-Induced Arthritis in Rats; type: in vivo, Charles River Lewis male rats; conditions: Rattus norvegicus; for ED50: 168 h, oral gavage daily for 7 days, ED50% decrease from control paw volume
Procedure: A procedure for detecting and comparing the antiinflammatory activity of compounds in this series and standard drugs for which there is a good correlation with human efficacy is the adjuvant-induced arthritis test in rats.
as §1
Charles River Lewis male rats (130-150 grams) are injected subcutaneously in plantar area of the right hind paw with 0.1 ml of adjuvant (Difco heat-killed, lyophilized Mycobacterium butyricum suspended in mineral oil 5 mg/ml). 20 Non-arthritic controls are injected with mineral oil. The animals are held for 2 weeks to allow development of arthritis. Paw volumes (uninjected, left hind paw) are measured and the adjuvant injected rats are culled and distributed to treatment groups of 10 of equal disease severity. Non-arthritic controls are distributed to 2 groups of 10. The rats are given oral doses of compound or PVA-Acacia (Polyvinyl Alcohol 1%, Gum Acacia, U.S.P. 5%, Methylparaben 0.5%) (10 ml/kg) by gavage on that day and on the 6 following days. One day after the last dose the paw volumes (uninjected, left hind paw) are measured using a Ugo Basile Volume Differential Meter Model 7101. [formula]
Dose-response regression lines of the % decrease are plotted on semi-log paper by visual fit and the ED50% decrease from control paw volume is determined by inspection.

[3] = Table VII, oral, read-out: percent reduction in paw volume at the indicated dose

SMILES	ED50 ([1]; Table VII)	ED50 ([2]; Table VII)	also measured
CCOc1ccc(-c2[nH]c([S+]([O-])C(F)(F)F)cc2-c2ccc(F)cc2)cc1 (stereo not drawn) [Example 61]	> 130 mg/kg		inhibition in vivo at 9 mg/kg ([2]; Table VII, oral, dose 9 mg/kg, read-out: percent reduction in paw volume at the indicated dose): 14%
CS(=O)(=O)c1cc(-c2ccc(Cl)cc2)c(-c2ccc(Cl)cc2)[nH]1 [Example 62]	> 108 mg/kg	1.5 mg/kg	
CCOc1ccc(-c2[nH]c(S(C)(=O)=O)cc2-c2ccc(F)cc2)cc1 [Example 63]	> 108 mg/kg		inhibition in vivo at 25 mg/kg ([2]; Table VII, oral, dose 25 mg/kg, read-out: percent reduction in paw volume at the indicated dose): 34%
CS(=O)(=O)c1cc(-c2ccc(F)cc2)c(-c2ccc(F)cc2)[nH]1 [Example 64]	> 108 mg/kg		inhibition in vivo at 27 mg/kg [2, 3]: 25%
CCS(=O)(=O)c1cc(-c2ccc(Cl)cc2)c(-c2ccc(Cl)cc2)[nH]1 [Example 65]	> 108 mg/kg		inhibition in vivo at 27 mg/kg [2, 3]: 23%
CS(=O)(=O)c1cc(-c2ccc(Cl)cc2)c(-c2ccc(F)cc2)[nH]1 [Example 66]	> 135 mg/kg	27 mg/kg	
CS(=O)(=O)c1cc(-c2ccc(F)cc2)c(-c2ccc(Cl)cc2)[nH]1 [Example 67]	38 mg/kg	50 mg/kg	
COc1ccc(-c2[nH]c(S(C)(=O)=O)cc2-c2ccc(F)cc2)cc1 [Example 68]	18 mg/kg		inhibition in vivo at 27 mg/kg [2, 3]: 34%
COc1ccc(-c2[nH]c(S(C)(=O)=O)cc2-c2ccc(Cl)cc2)cc1 [Example 69]	38 mg/kg	13 mg/kg	
CS(=O)(=O)c1cc(-c2ccc(Cl)cc2)c(-c2ccccc2)[nH]1 [Example 71]	> 108 mg/kg		inhibition in vivo at 27 mg/kg [2, 3]: 23%
Cc1ccc(-c2cc(S(C)(=O)=O)[nH]c2-c2ccc(C)cc2)cc1 [Example 72]	7.2 mg/kg	90 mg/kg	
CC(=O)n1c(SC(F)(F)F)cc(-c2ccc(F)cc2)c1-c1ccc(F)cc1 [Example 73, 1-Acetyl-4,5-bis(4-fluorophenyl)-2-(trifluoromethylthio)pyrrole]			ED50 ([1]; Table VIII): > 108 mg/kg; ED50 ([2]; Table VIII): 4 mg/kg
Cn1c(SC(F)(F)F)cc(-c2ccc(F)cc2)c1-c1ccc(F)cc1 [Example 74, 1-Methyl-4,5-bis(4-fluorophenyl)-2-(trifluoromethylthio)pyrrole]			ED50 ([1]; Table VIII): > 108 mg/kg; ED50 ([2]; Table VIII): 1.1 mg/kg
CCOC(=O)n1c(SC(F)(F)F)cc(-c2ccc(F)cc2)c1-c1ccc(F)cc1 [Example 75, 1-Ethoxycarbonyl-4,5-bis(4-fluorophenyl)-2-(trifluoromethylthio)pyrrole]			ED50 ([1]; Table VIII): > 108 mg/kg; ED50 ([2]; Table VIII): 1.9 mg/kg
O=C(c1ccccc1)n1c(SC(F)(F)F)cc(-c2ccc(F)cc2)c1-c1ccc(F)cc1 [Example 76, 1-Benzoyl-4,5-bis(4-fluorophenyl)-2-(trifluoromethylthio)pyrrole]			ED50 ([1]; Table VIII): > 108 mg/kg; ED50 ([2]; Table VIII): 6.6 mg/kg
